Test results published in patent publication US6727277B1, “Compounds affecting cholesterol absorption” (Kansas State University Research Foundation, priority 2002, dated 2004).

Columns and labels:
[1] = system: cholesterol ester transfer protein (CETP); experiment: CETP activity, crude CETP preparation derived from hamster plasma; format: biochemical; details: in vitro
Procedure: The inhibitory effect of compound 1 on the activity of cholesterol ester transfer protein (CETP) was measured, using a crude CETP preparation derived from hamster plasma.

Sprague-Dawley rats = experiment: Observation of behaviour and visual examination of organs of infused rats; format: in vivo, rat
Description: Rats were sacrificed at the day end of the infusion, and the intestine and other organs were dissected and visually examined.

[2] = system: lymphatic absorption of oleic acid; experiment: Lymphatic absorption of oleic acid (triolein) in lymph-cannulated rats, fatty acid analysis of lymph; format: in vivo, rat
Procedure: Ten male Sprague-Dawley rats (Harlan Sprague Dawley, Inc., Indianapolis, Ind.) weighing 274.3±7.8 grams were housed individually in plastic cages in an environmentally controlled room of illumination (12:12-h light/dark cycle with the dark period from 0330 to 1530), humidity (60-70%), and temperature (22-25° C.) throughout the study. Rats had free access to deionized water and a nutritionally adequate diet (Table 1) containing soybean oil as the fat source and egg white as the protein source. The diet was formulated according to AIN-93G recommendations (In: Trace Elements in Laboratory Rodents (Watson, R. R., ed.), pp. 3-37. CRC Press, Boca Raton, Fla.). […]
(§1) During the duodenal infusion of lipid emulsion, lymph samples were collected hourly in preweighed ice-chilled centrifuge tubes containing 4 mg Na2-EDTA and 30 μg n-propyl gallate (Sigma Chemical, St. Louis, Mo.) as antioxidants. A portion of each lymph sample (100 μL) was mixed with scintillation liquid (ScintiVerse; Fisher Scientific, Fair Lawn, N.J.) and counted by scintillation spectrometry (Beckman LS-6500; Beckman Instruments, Fullerton, Calif.). The total ^14C-radioactivity appearing in hourly lymph volume (the hourly rates of ^14C-CH absorption) was expressed as a percentage of the total radioactivity infused (% dose). […]

[3] = system: lymphatic absorption of cholesterol; experiment: Lymphatic absorption of 14C-cholesterol in lymph-cannulated rats infused with lipid emulsion; format: in vivo, rat
Procedure: Ten male Sprague-Dawley rats (Harlan Sprague Dawley, Inc., Indianapolis, Ind.) weighing 274.3±7.8 grams were housed individually in plastic cages in an environmentally controlled room of illumination (12:12-h light/dark cycle with the dark period from 0330 to 1530), humidity (60-70%), and temperature (22-25° C.) throughout the study. Rats had free access to deionized water and a nutritionally adequate diet (Table 1) containing soybean oil as the fat source and egg white as the protein source. The diet was formulated according to AIN-93G recommendations (In: Trace Elements in Laboratory Rodents (Watson, R. R., ed.), pp. 3-37. CRC Press, Boca Raton, Fla.). Animals were cared for in an animal care facility accredited by the American Association for the Accreditation of Laboratory Animal Care. Rats were maintained in accordance with the policies and guidelines for animal care and use procedures of the Kansas State University Institutional Animal Care and Use Committee.
At 6 wk, rats were starved overnight for 17 h but allowed water ad libitum prior to the surgical placement of a lymph cannula and duodenal infusion catheter. The mesenteric lymph duct was cannulated as described in Koo et al., J. Nutr. 131: 717-722 (2001). Briefly, while rats were under anesthesia (2.0% halothane in 2.0 L O2/min delivered via a halothane vaporizer), a midline abdominal incision was made. […] The cannula was fixed in place with ethyl cyanoacrylate glue (Elmer's Products, Columbus, Ohio) and externalized through the right flank. An indwelling infusion catheter (Silastic® laboratory tubing, i.d. 1.0 mm, o.d. 2.2 mm; Dow Coming, Midland, Mich.) was introduced via the gastric fundus into the upper duodenum and secured in place with a purse-string suture (4-0 Silk, Ethicon, Somerville, N.J.) around the fundic incision. The infusion catheter was exteriorized alongside the lymph cannula. After the abdominal incision was closed, the rats were placed in restraining cages and housed in a recovery chamber at 30° C. for postoperative recovery for 22-24 h. During the recovery period, rats were infused continuously with glucose in phosphate buffered saline (PBS) (in mmol/L: 277 glucose, 6.75 Na2HPO4, 16.5 NaH2PO4, 115 NaCl, and 5 KCl; pH 6.7) v infusion catheter at 3.0 mL/h by a syringe pump (Harvard Apparatus, Model 935, South Natick, Mass.) to ensure adequate hydration and nutritional status of the animals.
After postoperative recovery, each rat was infused with a lipid emulsion at 3 mL/h for 8 h via the duodenal catheter in subdued light. The lipid emulsion consisted of 451.8 μmol triolein (95%, Sigma Chemical, St. Louis, Mo.), 33.3 kBq [4-^14C]-cholesterol (^14C-CH; specific activity, 1.85 GBq/mmol, American Radiolabeled Chemicals, St. Louis, Mo.), 20.7 μmol cholesterol, 3.1 μmol α-tocopherol (all-rac-dl-α-tocopherol, 97%, Aldrich Chemical, Milwaukee, Wis.) as an antioxidant, and 396.0 μmol sodium taurocholate (Sigma Chemical, St. Louis, Mo.) in 24 mL of PBS buffer, pH 6.5. For half of the rats, the lipid emulsion contained 114.9 μmol compound 1 (41.9 mg). Lipid emulsion was prepared under a gentle N2 stream and subdued light for 55 min using a microprocessor-controlled ultrasonicator equipped with a microtip (XL-2020 Ultrasonic Liquid Processor, Misonix, Farmingdale, N.Y.).
as §1, with “dose). All samples were ice chilled and handled in subdued light.” for “dose).”

[4] = target: T1, cholesterol ester transfer protein (CETP) (Homo sapiens, UniProt P11597); experiment: Inhibition of CETP, purified CETP preparation; format: biochemical; details: FIG. 3, FIG. 4
T1 sequence (P11597 18-493): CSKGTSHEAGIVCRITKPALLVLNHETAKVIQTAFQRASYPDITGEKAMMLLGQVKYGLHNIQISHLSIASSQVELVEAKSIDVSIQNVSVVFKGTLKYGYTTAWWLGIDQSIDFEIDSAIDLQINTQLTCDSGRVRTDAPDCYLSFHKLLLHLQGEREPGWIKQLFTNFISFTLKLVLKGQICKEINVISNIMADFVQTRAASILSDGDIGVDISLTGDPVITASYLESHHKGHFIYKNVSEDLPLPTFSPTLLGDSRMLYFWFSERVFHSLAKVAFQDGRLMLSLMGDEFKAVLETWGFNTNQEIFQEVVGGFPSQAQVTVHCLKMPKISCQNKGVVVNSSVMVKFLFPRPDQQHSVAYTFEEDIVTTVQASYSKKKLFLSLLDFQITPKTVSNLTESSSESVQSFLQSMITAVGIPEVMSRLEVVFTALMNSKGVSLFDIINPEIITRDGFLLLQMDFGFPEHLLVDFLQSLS
Procedure: The effect of compound 24 on inhibition of CETP was tested using a purified CETP preparation. CETP was purified and assayed according to procedures described in Tomada, H.; Tabata, N.; Shinose, M.; Takahashi Y.; Woodruff, H. B.; Omura, S. J. Antibiotics, 52: 1101-1107 (1999).

[5] = rats, 8 h duodenal infusion of lipid emulsion with 114.9 μmol (41.9 mg) compound 1, means ± SD, n = 5

CC1(C)CCC[C@]2(C)C3=Cc4c(cc(O)c(O)c4Cl)O[C@]3(C)CC[C@@H]12 [Compound 1, (4aS,6aR,12bS)-2H-11-Chloro-1,3,4,4a,5,6,6a,12b-octahydro-4,4,6a,12b-tetramethyl-benzo[a]xanthene-9,10-diol]
dose above which HDL total cholesterol, HDL free cholesterol and HDL cholesterol ester increased [1]: exceeded 250 μM
abnormalities of intestine and other organs, visual examination (Sprague-Dawley rats; rats sacrificed at end of infusion): No abnormalities were found
gross motor or behavioral abnormalities (Sprague-Dawley rats; rats, 8 h infusion): no gross motor or behavioral abnormalities
absorption of triolein compared to control rats ([2]; rats infused for eight hours): significantly less
Oleic acid absorbed in lymph [2, 5]: 253 ± 79 μmol/8 h
14C-cholesterol absorbed, cumulative ([3]; 1 h, rats, means ± SD, n = 5): 0.12 ± 0.04 % dose
14C-cholesterol absorbed, cumulative ([3]; 2 h, rats, means ± SD, n = 5): 1.22 ± 0.25 % dose
14C-cholesterol absorbed, cumulative ([3]; 3 h, rats, means ± SD, n = 5): 2.70 ± 0.42 % dose
14C-cholesterol absorbed, cumulative ([3]; 4 h, rats, means ± SD, n = 5): 4.18 ± 0.92 % dose
14C-cholesterol absorbed, cumulative ([3]; 5 h, rats, means ± SD, n = 5): 5.68 ± 1.37 % dose
14C-cholesterol absorbed, cumulative ([3]; 6 h, rats, means ± SD, n = 5): 7.32 ± 1.78 % dose
14C-cholesterol absorbed, cumulative ([3]; 7 h, rats, means ± SD, n = 5): 9.13 ± 2.41 % dose
14C-cholesterol absorbed, cumulative ([3]; 8 h, rats, means ± SD, n = 5): 10.95 ± 3.29 % dose
percent cholesterol absorption ([3]; after 8 hours of treatment, 41.9 mg of compound 1, control 37.69%): 10.95%
total cholesterol absorption compared to control rats ([3]; rats infused for eight hours): significantly less
14C-CH absorption [3, 5]: 10.95 ± 3.29 % dose/8 h

CC1(C)CCC[C@]2(C)C3=CC4=C(Cl)C(=O)C(=O)C=C4O[C@]3(C)CC[C@@H]12 [Compound 24, (4aS,6aR,12aR,12bS)-2H-11-Chloro-1,3,4,4a,5,6,6a,9,10,12b-decahydro-4,4,6a,12b-tetramethyl-benzo[a]xanthene-9,10-dione]
IC50 [4]: 31 µM

C=Cc1ccc(OC(=O)c2ccc(O)c(N=O)c2)cc1.C=Cc1ccc(OC(=O)c2ccc(O)c(N=O)c2)cc1.C=Cc1ccc(OC(=O)c2ccc(O)c(N=O)c2)cc1.[Fe+2] [Ferroverdin A, reference compound]
IC50 [4]: ~22 µM
